# Earlier results, collected in patent US20230071557A1, “STABLE PHARMACEUTICAL COMPOSITIONS OF ROPINIROLE” (ORION CORPORATION, priority 2020, published 2023).
# Structures can show the parent of a compound that is named as a salt.
# Tested on: dogs
# Details: aqueous eye drop solution comprising 10 or 40 mg/ml of ropinirole hydrochloride
structure (smiles),measurement,value
CCCN(CCC)CCc1cccc2c1CC(=O)N2 [ropinirole hydrochloride],Vomiting (emesis) in dogs,produced vomiting rapidly and consistently
